Experimental data as given in US20230173018A1, “CASPOFUNGIN DERIVATIVES AND ASSAYS FOR EVALUATING ANTIFUNGAL TREATMENT EFFICACY” (priority 2020, published 2023).
≈ marks a conversion by molar mass, not a printed value.

Assays:
Assay type in all cases: cell-based
[1] = system: C. albicans T-2076 (DP-194); assay: microbe, parasite or virus in culture; conditions: strain no. 13, T-2076 (DP-194), clinical isolate, FKS1 HS1-S645F, HS2-R1361R/H mutation
Source text: (§1) The antifungal activities of compounds 1a, 1 and 2 (collectively: caspofungin derivatives) were compared to that of caspofungin and CSF-BOD using a panel of 49 C. albicans and C. glabrata strains (Tables 1 and 2). The panel included ATCC strains and clinical isolates as well a collection of caspofungin-responsive strains and their corresponding isogenic caspofungin-resistant derivatives, constructed by introducing point mutations within and near the defined hotspots in the FKS1 and/or FKS2 genes of the GS complex. Minimal inhibitory concentration (MIC) values for all strains were determined using the broth double dilution method and are summarized in FIG. 2 and Table 2. […] The clinical breakpoints (threshold) for caspofungin-resistance in C. albicans and C. glabrata are 1 μg/mL and 0.5 μg/mL, respectively.

C. glabrata TGL00291 = assay: microbe, parasite or virus in culture; conditions: strain no. 36, TGL00291, parental BG2, FKS mutant
Source text: as §1

C. glabrata TGL00054 = assay: microbe, parasite or virus in culture; conditions: strain no. 19, TGL00054, parental CST109, FKS2 mutant
Source text: as §1

C. glabrata TGL00293 = assay: microbe, parasite or virus in culture; conditions: strain no. 37, TGL00293, parental BG2, FKS mutant
Source text: as §1

C. glabrata TGL00065 = assay: microbe, parasite or virus in culture; conditions: strain no. 27, TGL00065, FKS mutant
Source text: as §1

[2] = system: C. albicans T-2069 (DP-85); assay: microbe, parasite or virus in culture; conditions: strain no. 14, T-2069 (DP-85), clinical isolate, FKS1 HS1-S645F mutation
Source text: as §1

[3] = system: C. albicans T-2074 (DP-122); assay: microbe, parasite or virus in culture; conditions: strain no. 12, T-2074 (DP-122), clinical isolate, FKS1 HS1-P649H mutation
Source text: as §1

C. glabrata TGL00253 = assay: microbe, parasite or virus in culture; conditions: strain no. 20, TGL00253, parental CST109, FKS2 mutant
Source text: as §1

C. glabrata TGL00056 = assay: microbe, parasite or virus in culture; conditions: strain no. 22, TGL00056, parental CST34, FKS mutant
Source text: as §1

C. albicans SN95 = assay: microbe, parasite or virus in culture; conditions: strain no. 8, SN95, parental RM1000
Source text: as §1

C. glabrata TGL00277 = assay: microbe, parasite or virus in culture; conditions: strain no. 33, TGL00277, parental EF1620, FKS mutant
Source text: as §1

C. glabrata TGL00263 = assay: microbe, parasite or virus in culture; conditions: strain no. 28, TGL00263, parental CST78, FKS mutant
Source text: as §1

C. glabrata TGL00107 = assay: microbe, parasite or virus in culture; conditions: strain no. 23, TGL00107, parental CST34, FKS mutant
Source text: as §1

[4] = system: C. glabrata T-985 (11-076); assay: microbe, parasite or virus in culture; conditions: strain no. 49, T-985 (11-076), clinical isolate
Source text: as §1

[5] = system: C. albicans T-2077 (DP-205); assay: microbe, parasite or virus in culture; conditions: strain no. 15, T-2077 (DP-205), clinical isolate, FKS1 HS1-S645P mutation
Source text: as §1

C. glabrata TGL00264 = assay: microbe, parasite or virus in culture; conditions: strain no. 29, TGL00264, parental CST78, FKS mutant
Source text: as §1

C. glabrata TGL00258 = assay: microbe, parasite or virus in culture; conditions: strain no. 25, TGL00258, parental CST34, FKS mutant
Source text: as §1

C. glabrata DPL1086 = assay: microbe, parasite or virus in culture; conditions: strain no. 17, DPL1086, parental ATCC 90030, FKS1 mutant HS1-S629P
Source text: as §1

[6] = system: C. albicans DPL1016 (DP-A15-10); assay: microbe, parasite or virus in culture; conditions: strain no. 3, DPL1016 (DP-A15-10), parental SC5314, FKS1 mutant HS1-S645P
Source text: as §1

C. glabrata TGL00275 = assay: microbe, parasite or virus in culture; conditions: strain no. 32, TGL00275, FKS mutant
Source text: as §1

C. glabrata TGL00265 = assay: microbe, parasite or virus in culture; conditions: strain no. 30, TGL00265, parental CST78, FKS mutant
Source text: as §1

C. glabrata TGL00091 = assay: microbe, parasite or virus in culture; conditions: strain no. 35, TGL00091, FKS mutant
Source text: as §1

C. glabrata CST78 = assay: microbe, parasite or virus in culture; conditions: strain no. 26, C. glabrata CST78
Source text: as §1

C. albicans CG72 = assay: microbe, parasite or virus in culture; conditions: strain no. 7, CG72, parental CAM, pKE1:GFP-YPT72
Source text: as §1

C. glabrata TGL00256 = assay: microbe, parasite or virus in culture; conditions: strain no. 24, TGL00256, parental CST34, FKS mutant
Source text: as §1

[7] = system: C. albicans T-2068 (DP-C42); assay: microbe, parasite or virus in culture; conditions: strain no. 4, T-2068 (DP-C42), parental SC5314, FKS1 HS1-F641S mutation
Source text: as §1

C. glabrata TGL00294 = assay: microbe, parasite or virus in culture; conditions: strain no. 38, TGL00294, parental BG2, FKS mutant
Source text: as §1

[8] = system: C. albicans DPL1015 (DP-A15); assay: microbe, parasite or virus in culture; conditions: strain no. 2, DPL1015 (DP-A15), parental SC5314, FKS1 mutant HS1-S645S/P
Source text: as §1

C. glabrata BG2 = assay: MIC, broth double dilution; conditions: strain no. 34, C. glabrata BG2
Source text: as §1

C. glabrata T-192 (1775) = assay: MIC, broth double dilution; conditions: strain no. 44, T-192 (1775), clinical isolate
Source text: as §1

[9] = system: C. glabrata T-983 (11-079); assay: MIC, broth double dilution; conditions: strain no. 47, T-983 (11-079), clinical isolate
Source text: as §1

C. glabrata ATCC 66032 = assay: MIC, broth double dilution; conditions: strain no. 40, C. glabrata ATCC 66032
Source text: as §1

[10] = system: C. glabrata T-191 (11-331); assay: MIC, broth double dilution; conditions: strain no. 43, T-191 (11-331), clinical isolate
Source text: as §1

C. glabrata ATCC 15126 = assay: MIC, broth double dilution; conditions: strain no. 41, C. glabrata ATCC 15126
Source text: as §1

With `CC[C@H](C)C[C@H](C)CCCCCCCCC(=O)N[C@H]1C[C@@H](O)[C@@H](NCCN)NC(=O)[C@@H]2[C@@H](O)CCN2C(=O)[C@H]([C@H](O)CCN)NC(=O)[C@H]([C@H](O)[C@@H](O)c2ccc(OCc3cn(CCCNC(=O)c4ccc(-c5c6ccc(=[N+](C)C)cc-6oc6cc(N(C)C)ccc56)c(C(=O)[O-])c4)nn3)cc2)NC(=O)[C@@H]2C[C@@H](O)CN2C(=O)[C@H]([C@@H](C)O)NC1=O` [Compound 1] the MIC [1] was 32 µg/mL (≈ 19.5 µM), the MIC (C. glabrata TGL00291) was >64 µg/mL and the MIC (C. glabrata TGL00054) was >64 µg/mL. For the same compound, the MIC (C. glabrata TGL00293) was >64 µg/mL, the MIC (C. glabrata TGL00065) was >64 µg/mL and the MIC [2] was 64 µg/mL (≈ 38.9 µM). The MIC [3] was 16 µg/mL (≈ 9.73 µM), the MIC (C. glabrata TGL00253) was >64 µg/mL and the MIC (C. glabrata TGL00056) was >64 µg/mL. For the same compound, the MIC (C. albicans SN95) was 0.5 µg/mL (≈ 0.304 µM), the MIC (C. glabrata TGL00277) was >64 µg/mL and the MIC (C. glabrata TGL00263) was >64 µg/mL. For the same compound, the MIC (C. glabrata TGL00107) was >64 µg/mL, the MIC [4] was 1 µg/mL (≈ 0.608 µM) and the MIC [5] was >64 µg/mL. The MIC (C. glabrata TGL00264) was >64 µg/mL, the MIC (C. glabrata TGL00258) was >64 µg/mL and the MIC (C. glabrata DPL1086) was 8 µg/mL (≈ 4.87 µM). The MIC [6] was 64 µg/mL (≈ 38.9 µM), the MIC (C. glabrata TGL00275) was 64 µg/mL (≈ 38.9 µM) and the MIC (C. glabrata TGL00265) was >64 µg/mL. The MIC (C. glabrata TGL00091) was >64 µg/mL, the MIC (C. glabrata CST78) was 1 µg/mL (≈ 0.608 µM) and the MIC (C. albicans CG72) was 0.5 µg/mL (≈ 0.304 µM). For the same compound, the MIC (C. glabrata TGL00256) was 4 µg/mL (≈ 2.43 µM), the MIC [7] was 64 µg/mL (≈ 38.9 µM) and the MIC (C. glabrata TGL00294) was >64 µg/mL. It also gave an MIC [8] of 16 µg/mL (≈ 9.73 µM), an MIC (C. glabrata BG2) of 1 µg/mL (≈ 0.608 µM) and an MIC (C. glabrata T-192 (1775)) of 0.5 µg/mL (≈ 0.304 µM). For the same compound, the MIC [9] was 0.5 µg/mL (≈ 0.304 µM), the MIC (C. glabrata ATCC 66032) was 1 µg/mL (≈ 0.608 µM) and the MIC [10] was 0.5 µg/mL (≈ 0.304 µM). It also gave an MIC (C. glabrata ATCC 15126) of 1 µg/mL (≈ 0.608 µM).

In the case of `CC[C@H](C)C[C@H](C)CCCCCCCCC(=O)N[C@H]1C[C@@H](O)[C@@H](NCCNC(=O)CCc2ccc3n2[B-](F)(F)[N+]2=C(C)C=C(C)C2=C3)NC(=O)[C@@H]2[C@@H](O)CCN2C(=O)[C@H]([C@H](O)CCN)NC(=O)[C@H]([C@H](O)[C@@H](O)c2ccc(O)cc2)NC(=O)[C@@H]2C[C@@H](O)CN2C(=O)[C@H]([C@@H](C)O)NC1=O` [CSF-BOD], the MIC [1] is reported as 32 µg/mL (≈ 23.4 µM), the MIC (C. glabrata TGL00291) is reported as >64 µg/mL and the MIC (C. glabrata TGL00054) is reported as >64 µg/mL. For the same compound, the MIC (C. glabrata TGL00293) was >64 µg/mL, the MIC (C. glabrata TGL00065) was >64 µg/mL and the MIC [2] was >64 µg/mL. The MIC [3] was 16 µg/mL (≈ 11.7 µM), the MIC (C. glabrata TGL00253) was >64 µg/mL and the MIC (C. glabrata TGL00056) was >64 µg/mL. The MIC (C. albicans SN95) was 2 µg/mL (≈ 1.46 µM), the MIC (C. glabrata TGL00277) was >64 µg/mL and the MIC (C. glabrata TGL00263) was >64 µg/mL. The MIC (C. glabrata TGL00107) was >64 µg/mL, the MIC [4] was 2 µg/mL (≈ 1.46 µM) and the MIC [5] was >64 µg/mL. For the same compound, the MIC (C. glabrata TGL00264) was >64 µg/mL, the MIC (C. glabrata TGL00258) was >64 µg/mL and the MIC (C. glabrata DPL1086) was 16 µg/mL (≈ 11.7 µM). For the same compound, the MIC [6] was >64 µg/mL, the MIC (C. glabrata TGL00275) was >64 µg/mL and the MIC (C. glabrata TGL00265) was >64 µg/mL. For the same compound, the MIC (C. glabrata TGL00091) was >64 µg/mL, the MIC (C. glabrata CST78) was 2 µg/mL (≈ 1.46 µM) and the MIC (C. albicans CG72) was 1 µg/mL (≈ 0.731 µM). The MIC (C. glabrata TGL00256) was 8 µg/mL (≈ 5.85 µM), the MIC [7] was >64 µg/mL and the MIC (C. glabrata TGL00294) was >64 µg/mL. The MIC [8] was 16 µg/mL (≈ 11.7 µM), the MIC (C. glabrata BG2) was 2 µg/mL (≈ 1.46 µM) and the MIC (C. glabrata T-192 (1775)) was 2 µg/mL (≈ 1.46 µM). For the same compound, the MIC [9] was 2 µg/mL (≈ 1.46 µM), the MIC (C. glabrata ATCC 66032) was 2 µg/mL (≈ 1.46 µM) and the MIC [10] was 1 µg/mL (≈ 0.731 µM). For the same compound, the MIC (C. glabrata ATCC 15126) was 2 µg/mL (≈ 1.46 µM).
